Measurements as given in PMC4282894, “Effect of Bile Salt Hydrolase Inhibitors on a Bile Salt Hydrolase from Lactobacillus acidophilus” (Pathogens, 2014).
Counter-ions that a name gives are not always drawn.

Target: T1, L. acidophilus BSH (rBSH; LaciP) (Lactobacillus acidophilus, UniProt A5HKP3)
T1 construct: full-length BSH (316 aa), C-terminal His tag, pET-21b(+), E. coli BL21(DE3), Ni-NTA; about 32 kDa on SDS-PAGE
Assay: two-step ninhydrin BSH assay (glycine release from glycocholic acid)
Type: biochemical
Conditions: not given
From the text: two-step ninhydrin BSH assay (glycine release from glycocholic acid) on L. acidophilus BSH (rBSH; LaciP)

T1 sequence (A5HKP3 whole entry): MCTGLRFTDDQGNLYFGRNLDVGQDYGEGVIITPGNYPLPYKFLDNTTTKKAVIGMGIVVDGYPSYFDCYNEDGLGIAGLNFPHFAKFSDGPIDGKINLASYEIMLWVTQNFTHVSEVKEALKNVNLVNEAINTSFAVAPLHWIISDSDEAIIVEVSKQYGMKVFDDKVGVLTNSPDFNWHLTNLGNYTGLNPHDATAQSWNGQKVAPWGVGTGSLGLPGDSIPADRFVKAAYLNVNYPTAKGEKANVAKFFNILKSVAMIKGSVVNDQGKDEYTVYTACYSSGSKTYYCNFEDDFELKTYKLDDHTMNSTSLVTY

| Structure (SMILES) | inhibition at 500 µM [%] | inhibition at 2500 µM [%] |
| --- | --- | --- |
| Cc1cc2nc3c(=O)[nH]c(=O)nc-3n(C[C@H](O)[C@H](O)[C@H](O)CO)c2cc1C [Riboflavin] | 96.5 |  |
| CCC[C@@H]1C[C@@H](C(=O)N[C@@H]([C@H]2O[C@H](SC)[C@H](O)[C@@H](O)[C@H]2O)[C@@H](C)O)N(C)C1 [Lincomycin] |  | 26.8 |
| CC1=CC(=O)c2ccccc2C1=O [Menadione] |  | 97.9 |
| C[C@H]1c2cccc(O)c2C(O)=C2C(=O)[C@]3(O)C(O)=C(C(N)=O)C(=O)[C@@H](N(C)C)[C@@H]3[C@@H](O)[C@@H]21 [Doxycycline Hydrochloride] |  | 98.3 |
| CN(C)[C@@H]1C(O)=C(C(N)=O)C(=O)[C@@]2(O)C(O)=C3C(=O)c4c(O)ccc(Cl)c4[C@@H](O)[C@H]3C[C@@H]12 [Demeclocycline Hydrochloride] |  | 99.6 |
| O=c1c(O)c(-c2ccc(O)c(O)c2)oc2c(O)c(O)cc(O)c12 [Gossypetin] |  | 96.1 |
| C=C1c2cccc(O)c2C(=O)C2=C(O)[C@]3(O)C(=O)C(C(N)=O)=C(O)[C@@H](N(C)C)[C@@H]3[C@@H](O)[C@H]12 [Methacycline Hydrochloride] |  | 99.2 |
| CN(C)[C@@H]1C(=O)C(C(N)=O)=C(O)[C@@]2(O)C(=O)C3=C(O)c4c(O)cccc4[C@@](C)(O)[C@H]3[C@H](O)[C@@H]12 [Oxytetracycline] |  | 99.6 |
| O=c1c(O)cccc2cc(O)c(O)c(O)c12 [Purpurogallin] |  | 36.1 |
| O=C(O[C@@H]1Cc2c(O)cc(O)cc2O[C@@H]1c1ccc(O)c(O)c1)c1cc(O)c(O)c(O)c1 [Epicatechin monogallate] |  | 52.8 |
| O=C(/C=C/c1ccc(O)c(O)c1)OCCc1ccccc1 [Caffeic Acid Phenethyl Ester] |  | 71.8 |

Same assay, conditions: 2500 µM; 5 mM glycocholic acid, about 10 mM DTT, 0.1 M sodium phosphate pH 6.0, 37 °C, 30 min preincubation

| Structure (SMILES) | % Inhibition [%] |
| --- | --- |
| O=[N+]([O-])c1cc([As](=O)(O)O)ccc1O [Roxarsone] | 48.6 |
